Patent US6620585B1, “Use of ectoenzymes and secreted enzymes to monitor cellular proliferation” (priority 2000, dated 2003)
≈ marks a conversion by molar mass, not a printed value. Positions of bridges follow the written chain, without caps; N, C: chain ends. Non-standard residues stand in square brackets, D forms with d. Residues, ends and D or L forms follow the SMILES beside them. *: point of attachment. Ileψ(thiazoline)Cys = CC[C@H](C)[C@H](N)C1=N[C@H](C(=O)*)CS1; dOrn = NCCC[C@@H](N)C(=O)O

Tested on: E. coli strain DJKGC4
Assay: Chitobiase-based cell growth assay, gentamicin dose response in 1536-well plate
Conditions: 5 hours, 100 μM MNAG
Procedure: FIG. 6 is an E. coli dose response curve to gentamicin. E. coli strain DJKGC4 was inubated with various concentrations of gentamicin for 5 hours in a 1536 well plate in the presence of 100 μM 4-methylumbelliferyl N-acetyl β-D-glucosaminide (MNAG). After removal of background fluorescence, the inhibition of cell growth produced by each gentamicin concentration was calculated by comparison to the fluorescence generated by control cells growing in the absence of gentamicin.
To follow cell growth using the fluorogenic substrate MNAG, E. coli cells of strain DJKGC4 containing a chromosomally integrated, constitutively expressed chitobiase gene were added to an appropriate growth medium containing 100 μM MNAG, and the resulting cell suspension was dispensed into the wells of 1536-well microplates as described above. Following addition of test compounds and controls, plates were incubated at 37° C. and cell growth was followed by measurement of the fluorescent product of chitobiase activity, 4-methylumbelliferone using an Acquest reader (LJL Biosystems, excitation wavelength 360 nm, emission wavelength 425 nm).
An E. coli dose response to gentamicin was obtained by incubating E. coli strain DJKGC4 with various concentrations of gentamicin for 5 hours in a 1536-well plate in the presence of 100 μM MNAG. […]

| Compound | IC50 by the chitobiase-based assay compared with 384 well plate format, turbidity-based assays |
| --- | --- |
| Gentamicin | indistinguishable |

Tested on: bacterial strain engineered for expression of an antisense complementary to a proliferation-required 50S ribosomal protein (rplL and rplJ)
Assay: not given
Format: cell-based, E. coli
Conditions: antisense to rplL and rplJ induced, 400 μM IPTG; growth by light scattering at 595 nm, mid-exponential time point
Procedure: The effectiveness of the above assays was validated using proliferation-required genes from E. coli which were identified using procedures similar to those described above. Antibiotics of various chemical classes and modes of action were purchased from Sigma Chemicals (St. Louis, Mo.). Stock solutions were prepared by dissolving each antibiotic in an appropriate aqueous solution based on information provided by the manufacturer. The final working solution of each antibiotic contained no more than 0.2% (w/v) of any organic solvent. To determine their potency against a bacterial strain engineered for expression of an antisense complementary to a proliferation-required 50S ribosomal protein, each antibiotic was serially diluted two or three fold in growth medium supplemented with the appropriate antibiotic for maintenance of the anti-sense construct. At least ten dilutions were prepared for each antibiotic. 25 μL aliquots of each dilution were transferred to discrete wells of a 384-well microplate (the assay plate) using a multi-channel pipette. Quadruplicate wells were used for each dilution of an antibiotic under each treatment condition (plus and minus inducer). Each assay plate contained twenty wells for cell growth controls (growth media replacing antibiotic), ten wells for each treatment (plus and minus inducer, in this example IPTG). Assay plates were usually divided into the two treatments: half the plate containing induced cells and an appropriate concentrations of inducer (in this example IPTG) to maintain the state of induction, the other half containing non-induced cells in the absence of IPTG.
Cells for the assay were prepared as follows. Bacterial cells containing a construct, from which expression of antisense nucleic acid complementary to rplL and rplJ, which encode proliferation-required 50S ribosomal subunit proteins, is inducible in the presence of IPTG, were grown into exponential growth (OD600 0.2 to 0.3) and then diluted 1:100 into fresh media containing either 400 μM or 0 μM inducer (IPTG). These cultures were incubated at 37° C. for 2.5 hr. After a 2.5 hr incubation, induced and non-induced cells were respectively diluted into an assay medium at a final OD600 value of 0.0004. The medium contained an appropriate concentration of the antibiotic for the maintenance of the antisense construct. In addition, the medium used to dilute induced cells was supplemented with 800 μM IPTG so that addition to the assay plate would result in a final IPTG concentration of 400 μM. Induced and non-induced cell suspensions were dispensed (25 μl/well) into the appropriate wells of the assay plate as discussed previously. The plate was then loaded into a plate reader, incubated at constant temperature, and cell growth was monitored in each well by the measurement of light scattering at 595 nm. Growth was monitored every 5 minutes until the cell culture attained a stationary growth phase. For each concentration of antibiotic, a percentage inhibition of growth was calculated at the time point corresponding to mid-exponential growth for the associated control wells (no antibiotic, plus or minus IPTG). For each antibiotic and condition (plus or minus IPTG), a plot of percent inhibition versus log of antibiotic concentration was generated and the IC50 determined.

| Compound | IC50 (+IPTG) [µg/mL] |
| --- | --- |
| CN(C)c1ccc(O)c2c1C[C@H]1C[C@H]3[C@H](N(C)C)C(O)=C(C(N)=O)C(=O)[C@@]3(O)C(O)=C1C2=O [Minocycline] | 0.003897 (≈ 0.00852 µM) |
| CN[C@@H]1[C@H](O)[C@H](NC)[C@H]2O[C@@]3(O)C(=O)C[C@@H](C)O[C@H]3O[C@@H]2[C@H]1O [Spectinomycin] | <0.156 |

Same assay, conditions: significant decrease in IC50 in the presence of inducer (IPTG)

| Compound | Sensitivity Increased ? |
| --- | --- |
| CC[C@H](C)[C@H](N)C1=N[C@H](C(=O)N[C@@H](CC(C)C)C(=O)N[C@H](CCC(=O)O)C(=O)N[C@H](C(=O)N[C@H]2CCCCNC(=O)[C@H](CC(N)=O)NC(=O)[C@@H](CC(=O)O)NC(=O)[C@H](Cc3cnc[nH]3)NC(=O)[C@@H](Cc3ccccc3)NC(=O)[C@H]([C@@H](C)CC)NC(=O)[C@@H](CCCN)NC2=O)[C@@H](C)CC)CS1 [Bacitracin] ({Ileψ(thiazoline)Cys}-L[dE]IK[dOrn]I[dF]H[dD]N; lactam 4-C) | No |
| CO/N=C(\C(=O)N[C@@H]1C(=O)N2C(C(=O)O)=C(COC(C)=O)CS[C@H]12)c1csc(N)n1 [Cefotaxime] | No |
| CO[C@@]1(NC(=O)Cc2cccs2)C(=O)N2C(C(=O)O)=C(COC(N)=O)CS[C@@H]21 [Cefoxitin] | No |
| O=C(N[C@H](CO)[C@H](O)c1ccc([N+](=O)[O-])cc1)C(Cl)Cl [Chloramphenicol] | Yes |
| CC[C@H]1OC(=O)[C@H](C)[C@@H](O[C@H]2C[C@@](C)(OC)[C@@H](O)[C@H](C)O2)[C@H](C)[C@@H](O[C@@H]2O[C@H](C)C[C@H](N(C)C)[C@H]2O)[C@](C)(O)C[C@@H](C)C(=O)[C@H](C)[C@@H](O)[C@]1(C)O [Erythromycin] | Yes |
| CC(=O)O[C@H]1C[C@@]2(C)[C@@H](C[C@@H](O)[C@H]3[C@@]4(C)CC[C@@H](O)[C@@H](C)[C@@H]4CC[C@@]32C)/C1=C(\CCC=C(C)C)C(=O)O [Fusidic acid] | Yes |
| CCC[C@@H]1C[C@@H](C(=O)N[C@@H]([C@H]2O[C@H](SC)[C@H](O)[C@@H](O)[C@H]2O)[C@@H](C)O)N(C)C1 [Lincomycin] | Yes |
| CCn1cc(C(=O)O)c(=O)c2ccc(C)nc21 [Nalidixic acid] | No |
| CN[C@@H]1[C@H](O)[C@H](NC)[C@H]2O[C@@]3(O)C(=O)C[C@@H](C)O[C@H]3O[C@@H]2[C@H]1O [Spectinomycin] | Yes |
| [H]/N=C(/N)N[C@H]1[C@H](O)[C@@H](O)[C@H](O[C@@H]2O[C@@H](C)[C@](O)(C=O)[C@H]2O[C@@H]2O[C@@H](CO)[C@H](O)[C@@H](O)[C@@H]2NC)[C@@H](N/C(N)=N\[H])[C@@H]1O [Streptomycin] | Yes |
| NC[C@H]1O[C@H](O[C@H]2[C@H](O)[C@@H](O[C@H]3O[C@H](CO)[C@@H](O)[C@H](N)[C@H]3O)[C@H](N)C[C@@H]2N)[C@H](N)C[C@@H]1O [Tobramycin] | Yes |
| CN[C@H](CC(C)C)C(=O)N[C@H]1C(=O)N[C@@H](CC(N)=O)C(=O)N[C@H]2C(=O)N[C@H]3C(=O)N[C@H](C(=O)N[C@H](C(=O)O)c4cc(O)cc(O)c4-c4cc3ccc4O)[C@H](O)c3ccc(c(Cl)c3)Oc3cc2cc(c3O[C@@H]2O[C@H](CO)[C@@H](O)[C@H](O)[C@H]2O[C@H]2C[C@](C)(N)[C@H](O)[C@H](C)O2)Oc2ccc(cc2Cl)[C@H]1O [Vancomycin] | No |
| Gentamicin | Yes |
